Columns and labels:
Assay in all cases: relative viability (nuclei count vs DMSO), 5 days (fraction); higher = more cells survive
[1] = compound: C1COCCN1C2=NC(=NC3=C2OC4=C3C=CC=N4)C5=CC(=CC=C5)NC(=O)C6=CN=C(C=C6)N + N=C(N)NC(=N)NCCc1ccccc1 [Phenformin] (partner 250 µM)
Summary of the method: (§1)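 Five library-drug doses in √10 steps were combined with a fixed anchor-drug dose, or a single drug was given alone, by pin tool to lung cancer cell lines in 1536-well plates the day after seeding. Nuclei were stained and counted after 5 days. Relative viability is the nuclei count in treated wells over that in vehicle wells, taken as the median of duplicate plates.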

SGI-1776 + Lapatinib = compound: CN1CCC(CNc2ccc3ncc(-c4cccc(OC(F)(F)F)c4)n3n2)CC1 [SGI-1776] + CS(=O)(=O)CCNCc1ccc(-c2ccc3ncnc(Nc4ccc(OCc5cccc(F)c5)c(Cl)c4)c3c2)o1 [Lapatinib] (partner 2 µM)
Summary of the method: as §1

Entinostat + Phenformin = compound: Nc1ccccc1NC(=O)c1ccc(CNC(=O)OCc2cccnc2)cc1 [Entinostat] + N=C(N)NC(=N)NCCc1ccccc1 [Phenformin] (partner 250 µM)
Summary of the method: as §1

Entinostat + Olaparib = compound: Nc1ccccc1NC(=O)c1ccc(CNC(=O)OCc2cccnc2)cc1 [Entinostat] + O=C(c1cc(Cc2n[nH]c(=O)c3ccccc23)ccc1F)N1CCN(C(=O)C2CC2)CC1 [Olaparib] (partner 8 µM)
Summary of the method: as §1

Row | Cell Line | relative viability ([1]; first compound 0.02 µM) | relative viability ([1]; first compound 0.06325 µM) | relative viability ([1]; first compound 0.2 µM) | relative viability ([1]; first compound 0.6325 µM) | relative viability ([1]; first compound 2 µM) | relative viability (SGI-1776 + Lapatinib; first compound 0.08 µM) | relative viability (SGI-1776 + Lapatinib; first compound 0.8 µM) | relative viability (SGI-1776 + Lapatinib; first compound 2.53 µM) | relative viability (SGI-1776 + Lapatinib; first compound 8 µM) | relative viability (Entinostat + Phenformin; first compound 0.02 µM) | relative viability (Entinostat + Phenformin; first compound 0.06325 µM) | relative viability (Entinostat + Phenformin; first compound 0.2 µM) | relative viability (Entinostat + Phenformin; first compound 0.6325 µM) | relative viability (Entinostat + Phenformin; first compound 2 µM) | relative viability (Entinostat + Olaparib; first compound 0.02 µM) | relative viability (Entinostat + Olaparib; first compound 0.06325 µM) | relative viability (Entinostat + Olaparib; first compound 0.2 µM) | relative viability (Entinostat + Olaparib; first compound 0.6325 µM) | relative viability (Entinostat + Olaparib; first compound 2 µM)
1 | NCI-H1395 | 0.396 | 0.451 | 0.461 | 0.415 | 0.384 | 1.16 | 1.04 | 1.07 | 0.781 | 0.441 | 0.494 | 0.421 | 0.417 | 0.416 | 0.445 | 0.466 | 0.423 | 0.398 | 0.408
2 | NCI-H1437 | 0.343 | 0.351 | 0.286 | 0.225 | 0.114 | 0.81 | 0.918 | 0.806 | 0.664 | 0.288 | 0.261 | 0.199 | 0.197 | 0.215 | 0.491 | 0.378 | 0.309 | 0.228 | 0.196
3 | NCI-H1650 | 0.358 | 0.402 | 0.413 | 0.355 | 0.237 | 0.877 | 0.983 | 0.809 | 0.343 | 0.54 | 0.498 | 0.49 | 0.419 | 0.256 | 0.828 | 0.967 | 0.819 | 0.527 | 0.363
4 | NCI-H1651 | 0.333 | 0.302 | 0.315 | 0.321 | 0.182 | 0.822 | 0.871 | 0.76 | 0.709 | 0.326 | 0.371 | 0.453 | 0.335 | 0.185 | 0.2 | 0.199 | 0.199 | 0.174 | 0.154
5 | NCI-H1666 | 0.577 | 0.608 | 0.473 | 0.567 | 0.442 | 0.645 | 0.765 | 0.581 | 0.35 | 0.56 | 0.609 | 0.581 | 0.497 | 0.443 | 0.81 | 0.759 | 0.723 | 0.669 | 0.539
6 | NCI-H1734 | 0.372 | 0.387 | 0.371 | 0.338 | 0.251 | 1.13 | 1.05 | 1.11 | 0.938 | 0.439 | 0.509 | 0.488 | 0.342 | 0.315 | 0.0279 | 0.637 | 0.621 | 0.563 | 0.356
7 | NCI-H1755 | 0.606 | 0.652 | 0.644 | 0.336 | 0.469 | 0.995 | 1.09 | 0.967 | 0.788 | 0.605 | 0.613 | 0.569 | 0.513 | 0.349 | 0.877 | 0.816 | 0.598 | 0.458 | 0.377
8 | NCI-H1792 | 0.245 | 0.471 | 0.211 | 0.218 | 0.179 | 0.908 | 0.988 | 0.867 | 0.756 | 0.318 | 0.441 | 0.315 | 0.101 | 0.17 | 0.488 | 0.358 | 0.483 | 0.133 | 0.0504
9 | NCI-H1793 | 0.393 | 0.483 | 0.404 | 0.372 | 0.277 | 0.701 | 0.749 | 0.668 | 0.974 | 0.439 | 0.4 | 0.368 | 0.302 | 0.316 | 0.929 | 0.959 | 0.743 | 0.681 | 0.236
10 | NCI-H1915 | 0.338 | 0.383 | 0.397 | 0.392 | 0.302 | 0.981 | 0.95 | 0.972 | 0.949 | 0.375 | 0.346 | 0.372 | 0.261 | 0.256 | 0.244 | 0.274 | 0.23 | 0.21 | 0.144
11 | NCI-H1944 | 0.217 | 0.244 | 0.182 | 0.194 | 0.142 | 0.81 | 0.727 | 0.915 | 0.601 | 0.193 | 0.182 | 0.168 | 0.13 | 0.142 | 0.373 | 0.323 | 0.216 | 0.177 | 0.172
12 | NCI-H1975 | 0.394 | 0.416 | 0.388 | 0.37 | 0.243 | 0.922 | 0.928 | 0.899 | 0.838 | 0.376 | 0.348 | 0.342 | 0.238 | 0.19 | 0.73 | 0.637 | 0.484 | 0.324 | 0.211
13 | NCI-H1993 | 0.483 | 0.498 | 0.501 | 0.513 | 0.522 | 0.839 | 0.958 | 0.841 | 0.636 | 0.489 | 0.579 | 0.495 | 0.536 | 0.563 | 1.25 | 1.11 | 1.01 | 0.892 | 0.375
14 | NCI-H2009 | 0.468 | 0.485 | 0.449 | 0.371 | 0.242 | 0.985 | 0.897 | 1 | 0.766 | 0.466 | 0.499 | 0.468 | 0.418 | 0.304 | 0.673 | 0.695 | 0.639 | 0.486 | 0.434
15 | NCI-H2023 | 0.424 | 0.457 | 0.346 | 0.32 | 0.156 | 0.918 | 1.21 | 1.04 | 0.219 | 0.355 | 0.407 | 0.327 | 0.162 | 0.0942 | 0.327 | 0.253 | 0.185 | 0.0826 | 0.0815
16 | NCI-H2085 | 0.686 | 0.753 | 0.678 | 0.629 | 0.398 | 0.838 | 0.847 | 0.748 | 0.687 | 0.716 | 0.774 | 0.706 | 0.461 | 0.375 | 0.755 | 0.726 | 0.717 | 0.592 | 0.378
17 | NCI-H2087 | 0.515 | 0.595 | 0.495 | 0.447 | 0.31 | 1.1 | 1.03 | 1.09 | 1.13 | 0.425 | 0.474 | 0.416 | 0.319 | 0.168 | 0.498 | 0.554 | 0.511 | 0.329 | 0.206
18 | NCI-H2126 | 0.535 | 0.553 | 0.524 | 0.461 | 0.441 | 0.72 | 0.742 | 0.772 | 0.71 | 0.53 | 0.512 | 0.535 | 0.452 | 0.363 | 0.953 | 0.925 | 0.886 | 0.742 | 0.539
19 | NCI-H2170 | 0.427 | 0.439 | 0.408 | 0.407 | 0.388 | 0.263 | 0.269 | 0.275 | 0.275 | 0.466 | 0.407 | 0.444 | 0.376 | 0.297 | 0.565 | 0.557 | 0.515 | 0.341 | 0.215
20 | NCI-H2228 | 0.322 | 0.392 | 0.273 | 0.233 | 0.222 | 0.816 | 1.21 | 0.927 | 0.415 | 0.285 | 0.334 | 0.395 | 0.22 | 0.207 | 0.633 | 0.749 | 0.613 | 0.254 | 0.176
21 | NCI-H2347 | 0.356 | 0.369 | 0.308 | 0.449 | 0.277 | 1.13 | 0.965 | 0.948 | 0.869 | 0.378 | 0.243 | 0.234 | 0.181 | 0.151 | 0.636 | 0.537 | 0.455 | 0.35 | 0.32
22 | NCI-H2405 | 0.373 | 0.41 | 0.37 | 0.353 | 0.338 | 0.994 | 1.14 | 1.19 | 0.728 | 0.392 | 0.462 | 0.414 | 0.352 | 0.358 | 0.843 | 0.895 | 0.861 | 0.72 | 0.623
23 | NCI-H3122 | 0.619 | 0.359 | 0.347 | 0.372 | 0.343 | 0.964 | 1.05 | 1.07 | 0.988 | 0.411 | 0.395 | 0.389 | 0.321 | 0.22 | 0.653 | 0.622 | 0.604 | 0.517 | 0.452
24 | PC-3 [JPC-3] | 0.485 | 0.491 | 0.453 | 0.469 | 0.443 | 0.441 | 0.466 | 0.478 | 0.371 | 0.449 | 0.482 | 0.523 | 0.449 | 0.448 | 1.14 | 1.12 | 1.04 | 0.663 | 0.456
25 | PC-14 | 0.478 | 0.36 | 0.397 | 0.446 | 0.268 | 0.337 | 0.31 | 0.261 | 0.209 | 0.761 | 0.61 | 0.662 | 0.309 | 0.076 | 0.291 | 0.294 | 0.321 | 0.104 | 0.0475
26 | RERF-LC-KJ | 0.416 | 0.484 | 0.395 | 0.426 | 0.291 | 0.867 | 0.868 | 0.728 | 0.795 | 0.433 | 0.437 | 0.422 | 0.339 | 0.312 | 0.901 | 0.903 | 0.795 | 0.373 | 0.282
27 | SK-LU-1 | 0.56 | 0.488 | 0.513 | 0.567 | 0.349 | 0.861 | 1.03 | 0.782 | 0.667 | 0.579 | 0.693 | 0.497 | 0.398 | 0.362 | 0.469 | 0.497 | 0.394 | 0.313 | 0.288
28 | SK-MES-1 | 0.663 | 0.766 | 0.729 | 0.618 | 0.462 | 0.494 | 0.447 | 0.449 | 0.404 | 0.614 | 0.699 | 0.721 | 0.657 | 0.504 | 0.576 | 0.646 | 0.801 | 0.596 | 0.467
29 | SW 1573 | 0.368 | 0.454 | 0.314 | 0.319 | 0.205 | 1.29 | 1.09 | 1.15 | 1.06 | 0.38 | 0.483 | 0.41 | 0.45 | 0.382 | 0.415 | 0.563 | 0.582 | 0.468 | 0.261

— the supplement of paper PMC10307832
